Results as given in PMC4652989, “A small-molecule inhibitor suppresses the tumor-associated mitochondrial NAD(P)^+-dependent malic enzyme (ME2) and induces cellular senescence” (Oncotarget, 2015).
Read-outs that look alike come from different tables or passages of the source.

What was measured:
[1] = tested on: H1299 cells; assay type: cell-based, human; conditions: for H1299 cell number / decrease of H1299 cell number compared with the control: 24 h; for H1299 cell growth, time course: within 48 h
Experimental: H1299 cells were grown in 90% Dulbecco's Modified Eagle Medium (DMEM) with 10% fetal bovine serum (FBS) (Gibco BRL, USA) at a temperature of 37°C in a humidified 5% CO2 environment. Cells were seeded in 6-well cell culture dishes in triplicate at a density of 1 × 10^5 cells/ml medium containing 10% FBS and treated with EA or siRNA at the indicated dosage. The cells were then counted, and cell numbers were determined at the indicated time points. The control shLuc and ME2 shRNA were purchased from the Nature RNAi Core Facility, Taipei, Taiwan (NRC). The shME2 was made using pLKO 005 (TRC2 vector). The target shRNA sequence for ME2 is 5′-[…]-3′, and the target shRNA sequence for luciferase is 5′-[…]-3′.

[2] = tested on: H1299 cells; experiment: senescence-associated β-galactosidase (SA-β-gal) assay; assay type: cell-based, human
Experimental: Cells were washed in PBS, fixed for 4 min at room temperature in approximately 2 to 3% formaldehyde or 0.2% glutaraldehyde, washed, and then incubated at 37°C under no C0_2 conditions with fresh SA-β-Gal stain solution. Cells were stained with 5-bromo-4-chloro-3-indolyl β-D-galactoside (X-Gal) for 2 to 16 h and detected using the senescence-associated β-galactosidase (SA-β-gal) assay. The percentages of SA-β-gal^+ cells were calculated by the number of positively stained cells per 1,000 cells counted in random fields.

[3] = tested on: m-NAD(P)-ME protein expression in H1299 cells; experiment: immunoblotting of m-NAD(P)-ME in H1299 cells; assay type: cell-based, human; conditions: various concentrations of EA, within 24 h, Western blot
Experimental: The supernatants were boiled in loading buffer, and an aliquot containing 100 μg of protein was separated by SDS-PAGE. After blotting, the PVDF membranes were incubated with anti-human m-NAD(P)-ME (ME2) (Sigma, St Louis, MO) and anti-β-actin antibodies (Santa Cruz) for 6 h, and membranes were then incubated for 1 h with the second antibody labeled with horseradish peroxidase. The antigen-antibody complexes were visualized using enhanced chemiluminescence (Amersham Pharmacia Biotech, USA).

[4] = tested on: m-NAD(P)-ME mRNA in H1299 cells; experiment: RT-PCR of ME2 in H1299 cells; assay type: cell-based, human; conditions: EA for 12 h
Experimental: Total RNA was isolated from H1299 cells treated with shME2 or EA for 12 h by using a total RNA reagent (MDBio, Inc., Taiwan). One microgram of RNA was reverse transcribed into cDNA using MMLV reverse transcriptase (Epicentre Biotechnologies, USA). PCR was performed in the linear range (by 25 cycles) with primers specific for ME2 and actin. The primer sequences used to amplify the target genes were as follows: ME2 forward primer, 5′-[…]-3′; ME2 reverse primer, 5′-[…]-3′; actin forward primer, 5′-[…]-3′, and reverse primer, 5′-[…]-3′.

[5] = molecular target: T1, m-NAD(P)-ME Q51A/E90A (Homo sapiens, UniProt P23368, E90A/Q51A); experiment: malic enzyme activity inhibition, dimer interface mutant; assay type: biochemical; conditions: Q51A/E90A pre-incubated with 40 μM EA
T1 construct: made in house; host or cells: Escherichia coli BL21
Experimental: (§1) The malic enzyme reaction was assayed in a reaction buffer containing 50 mM Tris-HCl (pH 7.4) with saturated concentrations of L-malate, NAD^+ or NADP^+ and MgCl2, with various concentrations of EA in a total volume of 1 ml at 30°C. The absorbance at 340 nm was continuously monitored in a UV/VIS spectrophotometer Lambda 25 (Perkin Elmer, MA, USA). In this process, one unit of enzyme was defined as the amount of enzyme that produces 1 μmol of NAD(P)H per min under the assay conditions. An absorption coefficient of 6.22 cm^−1mM^−1 for NAD(P)H was used in the calculations.
(§2) The inhibition experiments were conducted with a series of EA concentrations in a buffer containing 50 mM Tris-HCl (pH 7.4), 40 mM malate (pH 7.4), 10 mM MgCl2 and 2 mM NAD^+ (pH 7.4).

[6] = molecular target: T2, m-NAD(P)-ME E59N (Homo sapiens, UniProt P23368, E59N); experiment: malic enzyme activity inhibition, fumarate site mutant; assay type: biochemical; conditions: E59N pre-incubated with 40 μM EA
T2 construct: made in house; host or cells: Escherichia coli BL21
Experimental: as §1, §2

[7] = molecular target: T3, m-NAD(P)-ME R91A (Homo sapiens, UniProt P23368, R91A); experiment: as above; assay type: biochemical; conditions: R91A pre-incubated with 40 μM EA
T3 construct: made in house; host or cells: Escherichia coli BL21
Experimental: as §1, §2

T3 sequence (P23368 19-584 R91A): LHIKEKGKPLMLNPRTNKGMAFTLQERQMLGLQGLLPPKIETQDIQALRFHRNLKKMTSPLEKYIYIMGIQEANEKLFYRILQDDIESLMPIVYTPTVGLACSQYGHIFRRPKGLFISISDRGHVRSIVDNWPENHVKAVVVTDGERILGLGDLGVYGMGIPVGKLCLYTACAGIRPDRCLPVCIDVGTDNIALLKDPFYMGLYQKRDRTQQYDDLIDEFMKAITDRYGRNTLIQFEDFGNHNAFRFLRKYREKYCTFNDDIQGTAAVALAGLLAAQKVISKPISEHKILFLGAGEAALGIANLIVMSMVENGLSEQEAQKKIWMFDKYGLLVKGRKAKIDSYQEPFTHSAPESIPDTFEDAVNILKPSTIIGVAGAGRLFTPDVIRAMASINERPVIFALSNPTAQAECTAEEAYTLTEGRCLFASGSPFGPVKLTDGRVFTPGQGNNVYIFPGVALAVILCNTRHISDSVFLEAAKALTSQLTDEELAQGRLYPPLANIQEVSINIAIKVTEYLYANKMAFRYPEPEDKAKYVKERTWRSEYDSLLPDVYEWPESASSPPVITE
T2 sequence (P23368 19-584 E59N): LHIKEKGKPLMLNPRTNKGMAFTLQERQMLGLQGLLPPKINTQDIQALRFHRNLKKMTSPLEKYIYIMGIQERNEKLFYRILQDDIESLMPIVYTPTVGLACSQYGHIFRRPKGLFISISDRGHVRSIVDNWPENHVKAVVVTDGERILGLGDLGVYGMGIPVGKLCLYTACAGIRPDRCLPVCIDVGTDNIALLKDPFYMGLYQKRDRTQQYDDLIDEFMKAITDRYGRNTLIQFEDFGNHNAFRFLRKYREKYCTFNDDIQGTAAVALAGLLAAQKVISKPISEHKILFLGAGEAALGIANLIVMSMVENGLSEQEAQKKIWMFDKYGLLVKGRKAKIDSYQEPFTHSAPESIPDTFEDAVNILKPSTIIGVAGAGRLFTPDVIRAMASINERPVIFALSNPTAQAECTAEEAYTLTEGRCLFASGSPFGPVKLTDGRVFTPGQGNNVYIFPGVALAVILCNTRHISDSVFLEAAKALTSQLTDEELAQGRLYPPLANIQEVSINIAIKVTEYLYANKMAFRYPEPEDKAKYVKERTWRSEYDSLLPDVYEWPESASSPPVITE
T1 sequence (P23368 19-584 Q51A/E90A): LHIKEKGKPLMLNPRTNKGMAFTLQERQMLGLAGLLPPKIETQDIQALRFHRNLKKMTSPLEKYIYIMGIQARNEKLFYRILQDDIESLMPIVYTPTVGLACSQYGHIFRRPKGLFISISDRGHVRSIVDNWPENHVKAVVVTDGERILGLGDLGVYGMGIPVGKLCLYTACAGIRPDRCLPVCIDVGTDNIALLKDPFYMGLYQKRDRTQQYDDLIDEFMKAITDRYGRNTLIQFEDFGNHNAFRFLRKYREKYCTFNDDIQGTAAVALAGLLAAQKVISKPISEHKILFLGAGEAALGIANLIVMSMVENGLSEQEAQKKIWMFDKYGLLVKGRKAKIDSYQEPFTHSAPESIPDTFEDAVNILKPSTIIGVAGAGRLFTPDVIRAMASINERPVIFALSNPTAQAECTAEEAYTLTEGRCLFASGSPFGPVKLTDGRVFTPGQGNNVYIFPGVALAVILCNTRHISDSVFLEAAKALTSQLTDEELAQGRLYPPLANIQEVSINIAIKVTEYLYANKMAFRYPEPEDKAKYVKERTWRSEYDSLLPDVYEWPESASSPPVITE

## O=C(O)c1cc2ccccc2c(Cc2c(O)c(C(=O)O)cc3ccccc23)c1O [Embonic acid, embonic acid]
[1]; 5 nM EA
  H1299 cell number: did not decrease
[1]; 10 nM EA
  H1299 cell number: did not decrease
[1]; 100 nM EA
  decrease of H1299 cell number compared with the control: 23%
[1]; 1 μM EA
  decrease of H1299 cell number compared with the control: 30%
  H1299 cell growth, time course: inhibited H1299 cell growth
[1]; 10 μM EA
  decrease of H1299 cell number compared with the control: 40%
[1]; 10 μM EA, vs 1 μM
  H1299 cell growth, time course: more pronounced
[2]; 1 μM EA, 0-72 h
  number of SA-β-gal+ H1299 cells: increased in a time-dependent manner
[2]; 10 μM EA, within 72 h, vs 1 μM
  EA-induced H1299 cell senescence: more prominent
[2]; time course 0-72 h, SA-β-gal+ cells
  amount of senescence after 10 μM EA relative to 1 μM EA: 2 fold
[3]
  protein expression of m-NAD(P)-ME in H1299 cells: not influenced
[4]
  mRNA synthesis of m-NAD(P)-ME in H1299 cells: not influenced

## O=C(O)/C=C/C(=O)O [fumarate]
[5]
  restoration of EA-inhibited enzyme activity by fumarate: could not be restored
[6]
  restoration of EA-inhibited enzyme activity by fumarate: could not be restored
[7]
  restoration of EA-inhibited enzyme activity by fumarate: could not be restored
